Values joined by “and” are separate entries in the source; they are usually repeats but may differ in a detail not shown here. Identical values can stand only once. Like-named read-outs stand apart in the source and are kept apart here.
Key:
P. falciparum Dd2-2D4 = experiment: P. falciparum asexual blood stage (ABS) growth assay, SYBR Green, 72 h, wild-type parasites; format: cell-based, Plasmodium falciparum; conditions: for ABS growth dose-response, normalized signal (Replicates 1-3): Dd2-2D4
PfcProRS = target: T1, PfcProRS (Plasmodium falciparum, UniProt Q8I5R7); format: binding; conditions: for dose-response signal (normalized), SI Fig 8: single replicates
T1 construct: made in house; host or cells: E. coli SoluBL-21
T1 sequence (Q8I5R7 249-746): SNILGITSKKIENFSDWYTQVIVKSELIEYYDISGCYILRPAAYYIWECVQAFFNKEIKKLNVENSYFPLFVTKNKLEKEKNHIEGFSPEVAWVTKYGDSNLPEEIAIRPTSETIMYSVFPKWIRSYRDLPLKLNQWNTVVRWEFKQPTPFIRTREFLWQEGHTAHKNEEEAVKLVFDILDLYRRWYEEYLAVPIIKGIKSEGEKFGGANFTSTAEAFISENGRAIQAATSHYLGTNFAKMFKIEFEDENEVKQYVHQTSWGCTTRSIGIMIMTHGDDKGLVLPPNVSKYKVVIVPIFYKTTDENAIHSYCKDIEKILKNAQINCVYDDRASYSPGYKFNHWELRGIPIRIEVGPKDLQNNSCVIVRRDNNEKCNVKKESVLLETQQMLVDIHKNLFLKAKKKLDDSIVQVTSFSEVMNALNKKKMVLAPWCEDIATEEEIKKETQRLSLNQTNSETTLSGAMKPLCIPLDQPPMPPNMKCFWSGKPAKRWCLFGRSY

[1] = test system: HFGR-I P. falciparum (elevated proline homeostasis and PfcProRS^L482H); experiment: P. falciparum ABS growth assay, SYBR Green, 72 h, HFGR-I parasites; format: cell-based, Plasmodium falciparum; conditions: HFGR-I
From the text: Parasites were maintained under standard culture conditions as described previously[56],[57]. […] The P. falciparum Dd2 cell lines used in this study (Dd2-2D4, halofuginone-induced, and HFGR-I) have previously undergone whole genome sequencing in our labs. They were also routinely assayed and EC50 values determined using the ABS growth assay (see below) with a panel of standard antimalarial compounds, including halofuginone which has differential activity for the three Dd2 lines used in these experiments. Data were cross-referenced for consistency with literature reported values and data previously acquired in the lab.
This assay was performed as previously described. In short, P. falciparum erythrocytic-stage parasites at 1% parasitemia and 1% hematocrit in RPMI + 0.5% Albumax were seeded at 40 μL/well in 384-well plates with test compounds in triplicate, dose-response format with 10 μM dihydroartemisinin as a kill-control and blank (no compound) wells as a growth-control. […] After 72 h, growth was quantified by measuring fluorescence (Molecular Devices SpectraMax iD5) following SYBR Green 1 staining. Data were analyzed in Excel and plotted in PRISM (V. 8.4.3–9.1.0, GraphPad).

[2] = test system: halofuginone-induced P. falciparum (elevated proline homeostasis); experiment: P. falciparum ABS growth assay, SYBR Green, 72 h, halofuginone-induced parasites; format: cell-based, Plasmodium falciparum; conditions: Halofuginone-Induced (HFG-Induced)
In short: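 Dd2-derived erythrocytic-stage parasites at 1% parasitemia and 1% hematocrit in RPMI + 0.5% Albumax were exposed to compounds in triplicate dose-response. Controls were 10 μM dihydroartemisinin (kill) and no-compound wells (growth). Growth was read by SYBR Green 1 fluorescence after 72 h and used to derive EC50.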

CC(C)(C)OC(=O)N[C@H]1CC[C@@H](C(=O)Nc2nccnc2C(=O)NC2Cc3ccccc3C2)CC1 [compound 6]
ABS growth dose-response, normalized signal (Replicates 1-3) (P. falciparum Dd2-2D4; Log[inhibitor] (M) -4.699): 0 | ABS growth dose-response, normalized signal (Replicates 1-3) (P. falciparum Dd2-2D4; Log[inhibitor] (M) -5.301): 1 | ABS growth dose-response, normalized signal (Replicates 1-3) (P. falciparum Dd2-2D4; Log[inhibitor] (M) -5.903): 4 | EC50 (P. falciparum Dd2-2D4; Plasmodium falciparum, DD2, SI Fig 16b, values on -log scale, read-out: ABS - Dd2-2D4 (converted)): 508 nM | dose-response signal (normalized), SI Fig 8 (PfcProRS; Log[inhibitor] (M) -5.000): -1.61E-02 and -5.30E-02 and -3.81E-03 | dose-response signal (normalized), SI Fig 8 (PfcProRS; Log[inhibitor] (M) -5.301): -7.80E-02 and -1.87E-02 and -8.78E-02 | dose-response signal (normalized), SI Fig 8 (PfcProRS; Log[inhibitor] (M) -5.601): 1.78E-02 and -1.26E-02 and 5.92E-03 | dose-response signal (normalized), SI Fig 8 (PfcProRS; Log[inhibitor] (M) -5.904): 6.25E-02 and 5.05E-02 and 9.24E-02 | dose-response signal (normalized), SI Fig 8 (PfcProRS; Log[inhibitor] (M) -6.208): 5.23E-02 and 1.76E-01 and 1.80E-01 | dose-response signal (normalized), SI Fig 8 (PfcProRS; Log[inhibitor] (M) -6.509): 2.25E-01 and 2.68E-01 and 2.02E-01 | dose-response signal (normalized), SI Fig 8 (PfcProRS; Log[inhibitor] (M) -6.796): 4.96E-01 and 4.42E-01 and 4.81E-01 | dose-response signal (normalized), SI Fig 8 (PfcProRS; Log[inhibitor] (M) -7.108): 6.45E-01 and 6.22E-01 and 4.90E-01 | dose-response signal (normalized), SI Fig 8 (PfcProRS; Log[inhibitor] (M) -7.409): 7.15E-01 and 8.22E-01 and 8.32E-01 | dose-response signal (normalized), SI Fig 8 (PfcProRS; Log[inhibitor] (M) -7.710): 9.70E-01 and 9.04E-01 and 8.55E-01 | dose-response signal (normalized), SI Fig 8 (PfcProRS; Log[inhibitor] (M) -8.000): 8.78E-01 and 9.57E-01 and 8.94E-01 | dose-response signal (normalized), SI Fig 8 (PfcProRS; Log[inhibitor] (M) -8.301): 1.00E+00 and 9.97E-01 and 9.67E-01 | dose-response signal (normalized), SI Fig 8 (PfcProRS; Log[inhibitor] (M) -8.602): 1.06E+00 and 9.31E-01 and 1.01E+00 | dose-response signal (normalized), SI Fig 8 (PfcProRS; Log[inhibitor] (M) -9.000): 9.58E-01 and 9.81E-01 and 9.50E-01 | dose-response signal (normalized), SI Fig 8 (PfcProRS; Log[inhibitor] (M) -9.301): 1.01E+00 and 1.02E+00 and 9.51E-01 | PfcProRS -- best Kd (PfcProRS; SI Fig 16a, values on -log scale): 7.580 | ABS growth dose-response, normalized signal (Replicates 1-3) ([1]; Log[inhibitor] (M) -5.000): 30 and 31 and 35 | ABS growth dose-response, normalized signal (Replicates 1-3) ([1]; Log[inhibitor] (M) -5.301): 64 and 68 and 70 | ABS growth dose-response, normalized signal (Replicates 1-3) ([1]; Log[inhibitor] (M) -5.602): 83 (2×) and 82 | ABS growth dose-response, normalized signal (Replicates 1-3) ([1]; Log[inhibitor] (M) -5.903): 92 and 97 and 94 | ABS growth dose-response, normalized signal (Replicates 1-3) ([1]; Log[inhibitor] (M) -6.204): 105 and 106 and 108 | ABS growth dose-response, normalized signal (Replicates 1-3) ([1]; Log[inhibitor] (M) -6.505): 108 (2×) and 110 | ABS growth dose-response, normalized signal (Replicates 1-3) ([1]; Log[inhibitor] (M) -6.806): 85 and 90 (2×) | ABS growth dose-response, normalized signal (Replicates 1-3) ([1]; Log[inhibitor] (M) -7.107): 91 and 92 and 97 | ABS growth dose-response, normalized signal (Replicates 1-3) ([1]; Log[inhibitor] (M) -7.408): 92 and 97 and 99 | ABS growth dose-response, normalized signal (Replicates 1-3) ([1]; Log[inhibitor] (M) -7.709): 95 and 99 (2×) | ABS growth dose-response, normalized signal (Replicates 1-3) ([1]; Log[inhibitor] (M) -8.010): 107 and 102 and 97 | ABS growth dose-response, normalized signal (Replicates 1-3) ([1]; Log[inhibitor] (M) -8.311): 104 and 108 and 101 | ABS growth dose-response, normalized signal (Replicates 1-3) ([2]; Log[inhibitor] (M) -5.000): 38 and 37 and 33 | ABS growth dose-response, normalized signal (Replicates 1-3) ([2]; Log[inhibitor] (M) -5.301): 80 and 73 and 79 | ABS growth dose-response, normalized signal (Replicates 1-3) ([2]; Log[inhibitor] (M) -5.602): 89 and 91 and 90 | ABS growth dose-response, normalized signal (Replicates 1-3) ([2]; Log[inhibitor] (M) -5.903): 99 and 97 and 98 | ABS growth dose-response, normalized signal (Replicates 1-3) ([2]; Log[inhibitor] (M) -6.204): 99 and 98 and 96 | ABS growth dose-response, normalized signal (Replicates 1-3) ([2]; Log[inhibitor] (M) -6.505): 98 and 107 and 101

— publication PMC9403976, “Elucidating the path to Plasmodium prolyl-tRNA synthetase inhibitors that overcome halofuginone resistance” (Nature Communications, 2022)
